Measurements: patent US9212130B2, “Heterocyclic derivative and pharmaceutical composition comprising the same” (SHIONOGI & CO., LTD., priority 2010, dated 2015)

Molecular target: human P2X3 receptor (Homo sapiens (Human), UniProt P56373)
Test: Evaluation of human P2X3 receptor inhibitory activity (ATP-induced Fluo-3 fluorescence, FDSS 3000)
Assay type: cell-based
Details: C6BU-1 cell transfected with human P2X3 receptor gene
Description: The plate was placed in High-Throughput Screening System FDSS 3000 (Hamamatsu Photonics K.K.). […] Five minutes after, 50 nM ATP solution (50 μL) prepared by dilution with the dilution buffer was dispensed through the built-in automatic dispenser, and the measurement of fluorescence intensity was continued for 3 min. For each well, the specific maximum fluorescence intensity was calculated as the ratio of the maximum fluorescence intensity after addition of the ATP solution to the fluorescence intensity at the starting of the measurement. […] FDSS software (Hamamatsu Photonics K.K.) was used for calculation of the specific maximum fluorescence intensity. IC50 was calculated using Microsoft Excel (Microsoft. Corporation) and XLfit (idbs Ltd.)
The aforementioned in mM, μM and nM are each means mmol/L, μmol/L and nmol/L, respectively.
In tables, μM means μmol/L.

Sequence of human P2X3 receptor (P56373 whole entry): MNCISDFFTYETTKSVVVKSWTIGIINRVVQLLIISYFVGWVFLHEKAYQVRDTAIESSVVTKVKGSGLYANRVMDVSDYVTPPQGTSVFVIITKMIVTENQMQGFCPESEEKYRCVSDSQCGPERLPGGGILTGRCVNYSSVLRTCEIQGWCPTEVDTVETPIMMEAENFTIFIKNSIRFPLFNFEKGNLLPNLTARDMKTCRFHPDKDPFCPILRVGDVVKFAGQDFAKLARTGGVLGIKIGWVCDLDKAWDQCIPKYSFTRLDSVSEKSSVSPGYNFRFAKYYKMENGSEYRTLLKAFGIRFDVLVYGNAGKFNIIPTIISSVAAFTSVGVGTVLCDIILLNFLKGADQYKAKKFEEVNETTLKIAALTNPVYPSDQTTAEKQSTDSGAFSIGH

Structure (SMILES) | IC50 [µM]
CC(C)Oc1ccc(Nc2ccc(Cc3nc(N(C)C)oc(=O)c3Cl)cc2)cc1F [I-063] | 0.688
Cc1ccc(Oc2ccc(Nc3ncc(NC(=O)C4CCOCC4)c(=O)n3Cc3ccc(Cl)cc3)cc2)cn1 [I-265] | 0.001
CC(C)Oc1ccc(Nc2cc(=O)n(CC3COC(C)(C)OC3)c(=O)n2Cc2ccc(Cl)cc2)cc1Cl [I-094] | 0.005
CC(=O)N1CCC(C(=O)Nc2cnc(Nc3ccc(OC(C)C)c(F)c3)n(Cc3ccc(Cl)cc3)c2=O)CC1 [I-270] | 0.01
Cc1nc2ccc(Nc3ncc(NC(=O)C(CO)CO)c(=O)n3Cc3ccc(Cl)cc3)cc2s1 [I-361] | 0.01
CC(C)Oc1ccc(Nc2oc(Cc3ccccc3)nc2Cc2ccc(Cl)cc2)cc1F [I-070, 4-(4-chlorobenzyl)-2-benzyl-5-(3-fluoro-4-isopropoxyphenylamino)oxazole] | 0.635
CC(C)Oc1ccc(Nc2nc(=O)c(/C=C/C(=O)O)cn2Cc2ccc(Cl)cc2)cc1Cl [I-097] | 0.307
CC(C)Oc1ccc(Nc2ncc(C(N)=O)c(=O)n2Cc2ccc(Cl)cc2)cc1F [I-258] | 0.047
Cc1nc(Nc2ccc(OC(C)C)cc2)n(Cc2ccc(Cl)cc2)c(=O)c1Cc1ccccc1 [I-330] | 0.35
Cc1nc2ccc(Nc3ncc(Br)c(=O)n3Cc3ccc(Cl)cc3)cc2s1 [I-306] | 0.207
CC(=O)Nc1cnc(Nc2ccc3nc(C)sc3c2)n(Cc2ccc(Cl)cc2)c1=O [I-297] | 0.112
Cc1nc2ccc(Nc3ncc(NC(=O)C4CCOCC4)c(=O)n3Cc3ccc(Cl)cc3)cc2s1 [I-264] | 0.004
CC(C)Oc1ccc(Nc2ncc(N(S(C)(=O)=O)S(C)(=O)=O)c(=O)n2Cc2ccc(Cl)cc2)cc1F [I-253] | 0.536
CC(C)Oc1ccc(Nc2ncc(N)c(=O)n2Cc2ccc(Cl)cc2)cc1F [I-243] | 0.676
COC(=O)c1cncc(Oc2ccc(Nc3ncc(NC(=O)C4CCOCC4)c(=O)n3Cc3ccc(Cl)cc3)cc2)c1 [I-304] | 0.002
COC(=O)C(C)(C)Cn1c(=O)cc(Nc2ccc(OC(C)C)c(F)c2)n(Cc2ccc(Cl)cc2)c1=O [I-020] | 0.028
CCc1cnc(Nc2ccc(OC(C)C)c(F)c2)c(Oc2ccc(C)cc2)n1 [I-072, 5-ethyl-2-(3-fluoro-4-isopropoxyphenylamino)-3-(4-methylphenoxy)pyrazine] | 0.749
CC(C)Oc1ccc(Nc2ncc(NC(=O)C3COC(C)(C)OC3)c(=O)n2Cc2ccc(Cl)cc2)cc1F [I-287] | 0.023
CCOC(=O)c1cn(Cc2ccc(Cl)cc2)c(Nc2ccc(OC(C)C)c(Cl)c2)nc1=O [I-125] | 0.243
CC(C)Oc1ccc(Nc2ncc(NS(C)(=O)=O)c(=O)n2Cc2ccc(Cl)cc2)cc1F [I-252] | 0.062
Cc1cc(=O)n(Cc2ccc(Cl)cc2)c(Nc2ccc3nc(C)sc3c2)n1 [I-343] | 0.694
Cc1nc2ccc(Nc3nc(=O)c(C(=O)NN(C)C)cn3Cc3ccc(Cl)cc3)cc2s1 [I-310] | 0.132
Cc1nc2ccc(Nc3ncc(NC(=O)C(C)(C)O)c(=O)n3Cc3ccc(Cl)cc3)cc2s1 [I-360] | 0.003
CC(C)Oc1ccc(Nc2nc(OCCO)c3ccccc3c2C(=O)c2ccc(Cl)cc2)cc1F [I-110, 4-(4-chlorobenzoyl)-3-(3-fluoro-4-isopropoxyphenylamino)-1-(2-hydroxyethoxy)isoquinoline] | 0.405
COCCC(=O)Nc1cn(Cc2ccc(Cl)cc2)c(Nc2ccc(OC(C)C)c(F)c2)nc1=O [I-240] | 0.417
CC(C)Oc1ccc(Nc2ncc(C(=O)NN)c(=O)n2Cc2ccc(Cl)cc2)cc1F [I-272] | 0.104
CC(C)Oc1ccc(Nc2ncc(NC(=O)N3CCOCC3)c(=O)n2Cc2ccc(Cl)cc2)cc1F [I-278] | 0.016
CC(C)Oc1ccc(Nc2cc(=O)n(Cc3ccc(Cl)cc3)c(=O)n2Cc2ccc(Cl)cc2)cc1Cl [I-005] | 0.238
CC(C)Oc1ccc(Nc2cc(=O)n(Cc3ccccc3)cc2C(=O)c2ccc(Cl)cc2)cc1Cl [I-065, 4-(3-chloro-4-isopropoxyphenylamino)-1-benzyl-5-(4-chlorobenzoyl)pyridine-2(1H)-one] | 0.128
